This passage reports IC50, melting point and inhibition results from patent US20180237424A1, “FGFR3 ANTAGONISTS” (INSERM (INSTITUT NATIONAL DE LA SANTE ET DE LA RECHERCHE …, priority 2015, published 2018).

In one data set the target is T1, FGFR3-K650E (Homo sapiens, UniProt P22607, K650E).
T1 construct: expressed in transfected cells; host or cells: HEK 293 VNR cells
As to the kind of experiment: in cellulo FGFR3 phosphorylation in HEK 293 VNR cells transfected with FGFR3-K650E (immunoprecipitation, western blot). The format is cell-based. Background: A western blot detects proteins with antibodies after separation by electrophoresis.

Another data set addresses FGFR3 WT (Homo sapiens, UniProt P22607). As to the kind of experiment: in vitro inhibition of FGFR3 (WT). The class given is biochemical.

pIC50: −log10 of the molar value.

Chain of FGFR3 WT (P22607 23-806): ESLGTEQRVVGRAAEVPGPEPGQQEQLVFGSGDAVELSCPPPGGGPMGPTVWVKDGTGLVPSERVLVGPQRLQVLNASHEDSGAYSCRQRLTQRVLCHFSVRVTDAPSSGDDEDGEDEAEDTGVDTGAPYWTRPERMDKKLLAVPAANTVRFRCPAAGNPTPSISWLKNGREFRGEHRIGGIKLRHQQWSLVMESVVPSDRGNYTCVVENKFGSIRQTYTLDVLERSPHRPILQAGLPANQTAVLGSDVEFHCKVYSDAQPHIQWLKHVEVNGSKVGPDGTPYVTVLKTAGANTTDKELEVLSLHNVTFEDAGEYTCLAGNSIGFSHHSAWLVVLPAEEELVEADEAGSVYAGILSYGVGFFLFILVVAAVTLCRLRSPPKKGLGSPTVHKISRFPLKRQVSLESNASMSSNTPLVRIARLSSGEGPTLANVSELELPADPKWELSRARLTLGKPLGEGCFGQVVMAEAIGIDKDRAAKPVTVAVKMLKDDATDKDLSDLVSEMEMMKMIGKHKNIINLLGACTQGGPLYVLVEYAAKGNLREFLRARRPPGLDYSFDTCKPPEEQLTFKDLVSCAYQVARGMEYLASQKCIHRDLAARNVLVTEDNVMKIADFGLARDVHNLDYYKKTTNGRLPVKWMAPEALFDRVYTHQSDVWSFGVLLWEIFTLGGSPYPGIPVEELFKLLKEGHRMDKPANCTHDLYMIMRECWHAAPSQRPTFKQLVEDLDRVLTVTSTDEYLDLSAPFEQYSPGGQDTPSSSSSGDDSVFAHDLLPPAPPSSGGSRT
T1 sequence (P22607 23-806 K650E): as the sequence (P22607 23-806) above, with K628E counted along it

On to `COC(=O)c1c(NC(C)=O)c(-c2noc(-c3ccc(Br)cc3)n2)nn1-c1cccc(OC)c1` [Cpd 24, Methyl 4-acetamido-3-(5-(4-bromophenyl)-1,2,4-oxadiazol-3-yl)-1-(3-methoxyphenyl)-1H-pyrazole-5-carboxylate], for which the melting point (usually the temperature of the solid-liquid transition) was 224 °C. Further, the pIC50 (as a rule, the IC50 on a negative log10 scale, so that one unit is a factor of ten) on FGFR3-K650E is 6.82.
Turning to `COC(=O)c1c(NC(C)=O)c(-c2noc(-c3ccc([N+](=O)[O-])cc3)n2)nn1-c1cccc(OC)c1` [Cpd 25], at 0.5 µM the inhibition at FGFR3-K650E (HEK293, @ 500 nM, K650E) was 0%.
Regarding `COC(=O)c1c(NC(C)=O)c(-c2noc(-c3ccc(N(C)C)cc3)n2)nn1-c1cccc(OC)c1` [Cpd 27, Methyl 4-acetamido-3-(5-(4-(dimethylamino)phenyl)-1,2,4-oxadiazol-3-yl)-1-(3-methoxyphenyl)-1H-pyrazole-5-carboxylate], the melting point worked out at 196 °C.
`COC(=O)c1c(NC(C)=O)c(-c2noc(-c3ccc([N+](=O)[O-])cc3)n2)nn1-c1cccc(-c2cn(Cc3ccccc3)nn2)c1` [Cpd 64] gave a negative-log IC50 (pIC50) at FGFR3 WT (no qualifier printed (column % in vitro inhibition)) of 5.70.
With `CC(=O)Nc1c(-c2noc(-c3ccc([N+](=O)[O-])cc3)n2)nn(-c2cccc(-c3cn(Cc4ccccc4)nn3)c2)c1C(=O)NCc1ccccc1` [Cpd 79], at FGFR3 WT, testing at 10 µM gave an inhibition of 21% and the inhibition (usually the change of the read-out against control, counted positive when it falls) at 50 µM is 97%.
Molecule `COC(=O)c1c(NC(C)=O)c(-c2noc(-c3ccccc3)n2)nn1-c1cccc(OC)c1` [Cpd 134, Methyl 4-acetamido-1-(3-methoxyphenyl)-3-(5-phenyl-1,2,4-oxadiazol-3-yl)-1H-pyrazole-5-carboxylate] returned a melting point of 186 to 188 °C.
Still for that read-out and setting: under `COC(=O)c1c(NC(C)=O)c(-c2noc(-c3ccc([N+](=O)[O-])cc3)n2)nn1-c1cccc(OC)c1` [Example 2, Methyl 4-acetamido-1-(3-methoxyphenyl)-3-(5-(4-nitrophenyl)-1,2,4-oxadiazol-3-yl)-1H-pyrazole-5-carboxylate] stands 248 °C.
